Test results from US11873298B2, “Compounds and uses thereof” (JANSSEN PHARMACEUTICA NV, priority 2017, dated 2024).

Target: T1, SCD5 (Homo sapiens, UniProt Q86SK9)
T1 construct: host or cells: S. cerevisiae ole1Δ strain (W303 pdr1Δ pdr3Δ background), plasmid pRS316 with TDH3 promoter and CYC1 terminator
T1 sequence (Q86SK9 1-330): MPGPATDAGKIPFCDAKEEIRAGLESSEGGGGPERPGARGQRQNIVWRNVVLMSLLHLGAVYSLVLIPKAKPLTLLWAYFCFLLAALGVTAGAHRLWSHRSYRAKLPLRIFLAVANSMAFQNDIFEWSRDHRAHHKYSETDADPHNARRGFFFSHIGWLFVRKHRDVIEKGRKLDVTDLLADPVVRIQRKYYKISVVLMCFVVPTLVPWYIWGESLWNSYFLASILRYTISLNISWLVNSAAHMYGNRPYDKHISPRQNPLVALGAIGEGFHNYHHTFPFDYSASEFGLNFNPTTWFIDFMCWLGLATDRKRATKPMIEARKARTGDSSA
Experiment: Growth inhibition of humanized yeast strain expressing SCD5 as sole desaturase
Type: cell-based
Protocol: Strain oleΔ (yeast ole1 deletion mutant) was constructed by deleting OLE1 with NAT-MX6 in BY4741, amplifying the deletion cassette from the genomic DNA of the resulting strain with primers flanking the ORF by 1000 bp upstream and downstream, transforming the resulting deletion cassette into W303 pdr1Δ pdr3Δ, and plating transformants on YPD media containing G418 (200 μg/mL) and nourseothricin ([…]) with 0.01% TWEEN®-20 and 0.5 mM oleic and palmitoleic acids.
The coding sequence of yeast OLE1 was also cloned into this plasmid). These clones were then transformed into the ole1Δ strain and plated on CSM-Ura media (CSM lacking uracil) with 2% glucose (w/v) and independent colonies were isolated and amplified.
All compound profiling experiments were performed using the same basic protocol. Different genetic backgrounds (e.g., gene deletions) or conditions (e.g., addition of oleic and palmitoleic acid) were replaced as indicated below.
Yeast were cultured using standard techniques in complete synthetic media (CSM) and yeast nitrogen base supplemented with 2% (w/v) carbon source (glucose, raffinose, or galactose) to regulate the expression of the toxic disease protein. An initial starter culture was inoculated in 3 mL CSM-Glucose media and incubated overnight in a 30° C. shaker incubator (225 rpm). Saturated morning cultures were then diluted 1:20 in fresh CSM-Raffinose media and grown for 6 h to an OD600 (optical density) of ˜0.4-0.8 at 30° C. with shaking.
Compound administration was performed in two separate steps. First, 15 μL of CSM-Galactose (induces expression of toxic protein) was dispensed into clear 384 well assay plates using a MULTIDROP™ Combi reagent dispenser. […] The cultures described above were then diluted to a 2× concentration (0.03 and 0.08 for alpha-synuclein and ApoE, final ODsoo of 0.015 and 0.04) in CSM-Galactose. For wild-type and Ole1/SCD1/SCD5 plasmid-containing strains, the 2× cell density was 0.02. […] For 96-well assays (FIGS. 1A and 1B), compound dilutions in DMSO were generated in 96 well plates and 1 μL was manually pipetted into 96 well clear bottom assay plates.
For experiments using a plasmid-borne copy of Ole1, SCD1, or SCD5 (FIGS. 3B, 6, and 7), media lacking uracil (SX-Ura, where X is glucose, raffinose, or galactose), was used for all steps of the compound profiling protocol to ensure its maintenance throughout the assay.
After yeast delivery, assay plates were incubated under humidified conditions at 30° C. for 24 to 40 h. ApoE4 rescue experiments were stopped at 24 h, aSyn experiments at 40 h, Ole1 at 24 h, and SCD1/SCD5 at 40 h. The growth of yeast was monitored by reading the ODsoo of each well using a microplate reader (Perkin Elmer EnVision™).

[1] = humanized yeast strain expressing SCD5
[2] = yeast strain expressing human SCD5 as sole desaturase, Table 8

SMILES | IC50 [1] [nM] | IC50 [2] [nM]
Cc1noc2cc(-c3noc(C4CCN(C(=O)CC5(C)CC5)CC4)n3)ccc12 [Compound 591] | > 45000 | –
Cc1nn(C)c2cc(-c3noc(C4CCN(C(=O)CC5COC5)CC4)n3)ccc12 [Compound 592] | > 45000 | –
CC(C)n1ncc2ccc(-c3noc(N4CCN(C(=O)OCC(F)(F)F)CC4)n3)cc21 [Compound 593] | > 45000 | –
CC(C)n1ncc2ccc(N3CC4(CCN(C(=O)OC5CC5)CC4)C3)cc21 [Compound 594] | 11800 | –
COCC(=O)N1CCN(c2nc(-c3ccc4cnn(C(C)C)c4c3)no2)CC1 [Compound 595] | > 45000 | –
CC(C)n1ncc2ccc(-c3noc([C@H]4CC[C@H](N)CC4)n3)cc21 [Compound 596] | > 45000 | –
C[C@@H](O)C(=O)N1CCC(c2nc(-c3ccc4cnn(C5COC5)c4c3)no2)CC1 [Compound 597] | > 45000 | –
O=C(NCC(=O)N1CCC(c2nc(-c3ccc4cnn(C5COC5)c4c3)no2)CC1)c1ccccc1 [Compound 598] | > 45000 | –
N#Cc1cccc(N2C[C@@H](C(=O)N3CCC(c4nc(-c5ccc6cnn(C7COC7)c6c5)no4)CC3)CC2=O)c1 [Compound 599] | > 45000 | –
N#Cc1cccc(N2C[C@H](C(=O)N3CCC(c4nc(-c5ccc6cnn(C7COC7)c6c5)no4)CC3)CC2=O)c1 [Compound 600] | > 45000 | –
CC1(OC(=O)N2CCC(c3noc(-c4cccc(C5CCOC5)n4)n3)CC2)CC1 (stereo not shown) [Compound 1197] | – | 17900
CC1(OC(=O)N2CCC(c3noc(-c4cncc(N5CCC(F)(F)C5)c4)n3)CC2)CC1 [Compound 1198] | – | 1720
CC(C)C(=O)N1CCC(c2noc(-c3cncc(C4CCOC4)c3)n2)CC1 (stereo not shown) [Compound 1199] | – | 3780
CC(C)(C)OC(=O)N1CCC(c2noc(-c3ccnc(N4CCC(F)(F)C4)c3)n2)CC1 [Compound 1200] | – | 210
CC(C)(C)OC(=O)N1CCC(c2cc(-c3ccnc(C4CCOC4)n3)no2)CC1 (stereo not shown) [Compound 1202] | – | 7130
CC(C)C(=O)N1CCC(c2noc(-c3cc(C4CCOC4)ccn3)n2)CC1 (stereo not shown) [Compound 1204] | – | 2390
CC1(OC(=O)N2CCC(c3noc(-c4cc(C5CCOC5)ccn4)n3)CC2)CC1 (stereo not shown) [Compound 1205] | – | 330
CC1(OC(=O)N2CCC(c3noc(-c4cncc(C5CCOC5)c4)n3)CC2)CC1 (stereo not shown) [Compound 1206] | – | 320
CC(C)(C)OC(=O)N1CCC(c2noc(-c3ccnc(-c4cnoc4)c3)n2)CC1 [Compound 1213] | – | 60
CC(C)CC(=O)N1CCC(c2noc(-c3cnc4cnn(C5COC5)c4c3)n2)CC1 [Compound 1214] | – | 390
CCS(=O)(=O)N1CCC(c2noc(-c3ccc4cnn(C5COC5)c4c3)n2)CC1 [Compound 1216] | – | 330

SMILES | IC50 [1] [nM] | IC50 [2] [nM]
CC(C)S(=O)(=O)N1CCC(c2noc(-c3ccc4cnn(C5COC5)c4c3)n2)CC1 [Compound 1218] | – | 160
CC1(OC(=O)N2CCC(c3noc(-c4ccnc(-c5cnoc5)c4)n3)CC2)CC1 [Compound 1220] | – | 100
CC(C)C(=O)N1CCC(c2noc(N3CCc4cnn(C5COC5)c4C3)n2)CC1 [Compound 1223] | – | 2300
CC1(OC(=O)N2CCC(c3noc(N4CCc5cnn(C6COC6)c5C4)n3)CC2)CC1 [Compound 1224] | – | 60
CC(C)(C)OC(=O)N1CCC(c2cc(-c3cnc4cnn(C5COC5)c4c3)on2)CC1 [Compound 1225] | – | 120
CC(C)C(=O)N1CCC(c2cc(-c3cc4c(cn3)cnn4C3COC3)on2)CC1 [Compound 1226] | – | 20
CCC(=O)N1CCC(c2cc(-c3cc4c(cn3)cnn4C3COC3)on2)CC1 [Compound 1227] | – | 960
CC(C)(C)OC(=O)N1CCN(c2cc(-c3ccc4cnn(C5COC5)c4n3)on2)CC1 [Compound 1228] | – | 1950
O=C(N1CCC(c2nc(-c3ccnc(C4CCOC4)c3)no2)CC1)C1(F)CC1 (stereo not shown) [Compound 1229] | – | 1510
COC(=O)N1CCC(c2nc(-c3ccnc(C4CCOC4)c3)no2)CC1 (stereo not shown) [Compound 1230] | – | 6880
CC(C)CC(=O)N1CCC(c2cc(-c3cnc4cnn(C5COC5)c4c3)on2)CC1 [Compound 1231] | – | 16400
O=C(C1CCC1)N1CCC(c2cc(-c3cnc4cnn(C5COC5)c4c3)on2)CC1 [Compound 1232] | – | 7840
CC(C)(C)OC(=O)N1CCC(c2noc(-c3cnnc(C4CCOC4)c3)n2)CC1 (stereo not shown) [Compound 1234] | – | 490
O=C(C1CC1)N1CCC(c2cc(-c3cc4c(cn3)cnn4C3COC3)on2)CC1 [Compound 1236] | – | 200
CC1(C(=O)N2CCC(c3cc(-c4cc5c(cn4)cnn5C4COC4)on3)CC2)CC1 [Compound 1237] | – | 70
COC(=O)N1CCN(c2cc(-c3ccc4cnn(C5COC5)c4n3)on2)CC1 [Compound 1238] | – | 24600
O=C(C1CCC1)N1CCC(c2noc(-c3ccnc([C@H]4CCOC4)c3)n2)CC1 [Compound 1240] | – | 200
O=C(C1CCC1)N1CCC(c2noc(-c3ccnc([C@@H]4CCOC4)c3)n2)CC1 [Compound 1242] | – | 380
COC(=O)C(O)Cn1ncc2ccc(-c3nc(C4CCN(C(=O)OC(C)(C)C)CC4)no3)cc21 (stereo not shown) [Compound 1244] | – | 760
CC(C)(C)OC(=O)N1CCC(c2noc(-c3ccnc(-c4cnco4)c3)n2)CC1 [Compound 1245] | – | 580
O=C(C1CCC1)N1CCC(c2noc(-c3ccnc(N4CCC(F)(F)C4)c3)n2)CC1 [Compound 1246] | – | 400

SMILES | IC50 [1] [nM] | IC50 [2] [nM]
O=C(C1CC1)N1CCC(c2noc(-c3ccnc(N4CCC(F)(F)C4)c3)n2)CC1 [Compound 1247] | – | 1050
CCC(=O)N1CCC(c2noc(-c3ccnc(N4CCC(F)(F)C4)c3)n2)CC1 [Compound 1248] | – | 6930
CC(C)(C)OC(=O)N1CCC(c2noc(-c3ccc(OC4COC4)nc3)n2)CC1 [Compound 1249] | – | 4910
COC(=O)N1CCC(c2noc(-c3cnnc(C4CCOC4)c3)n2)CC1 (stereo not shown) [Compound 1250] | – | 10100
O=C(C1CC1)N1CCC(c2noc(-c3cnc4cnn(C5CCOC5)c4c3)n2)CC1 (stereo not shown) [Compound 1251] | – | 30
O=C(C1CC1)N1CCC(c2noc(-c3ccnc(O[C@@H]4CCOC4)c3)n2)CC1 [Compound 1255] | – | 1880
O=C(C1CCC1)N1CCC(c2noc(-c3ccc(F)c(N4CCOCC4)c3)n2)CC1 [Compound 1258] | – | 40
O=C(C1CC1)N1CCC(c2noc(-c3ccc(F)c(N4CCOCC4)c3)n2)CC1 [Compound 1259] | – | 40
COC(=O)N1CCC(c2noc(N3CCc4cnn(C(C)C)c4C3)n2)CC1 [Compound 1260] | – | 250
CC(C)(C)OC(=O)N1CCC(c2noc(-c3ccc(C4CCOC4)nc3)n2)CC1 (stereo not shown) [Compound 1262] | – | 14100
CC(C)C(=O)N1CCC(c2noc(-c3ccnc(-c4cnco4)c3)n2)CC1 [Compound 1264] | – | 3270
CC(C)(C)OC(=O)N1CCC(c2noc(-c3cc(C4CCOC4)ncc3F)n2)CC1 (stereo not shown) [Compound 1267] | – | 2650
CC1(OC(=O)N2CCC(c3noc(-c4ccc(C5CCOC5)nc4)n3)CC2)CC1 (stereo not shown) [Compound 1268] | – | 32600
O=C(C1CCC1)N1CCC(c2noc(-c3ccnc(O[C@@H]4CCOC4)c3)n2)CC1 [Compound 1269] | – | 590
CC1(C(=O)N2CCC(c3noc(-c4cncc(C5CCOC5)c4)n3)CC2)CCC1 (stereo not shown) [Compound 1270] | – | 400
Cn1cc2c(n1)CN(c1nc(C3CCN(C(=O)OC(C)(C)C)CC3)no1)CC2 [Compound 1272] | – | 7540
CC(C)(C)OC(=O)N1CCC(c2noc(-c3cc(N4CCOCC4)c(F)cn3)n2)CC1 [Compound 1273] | – | 20
COC(=O)N1CCC(c2noc(-c3cc(C4CCOC4)ncc3F)n2)CC1 (stereo not shown) [Compound 1274] | – | 190
O=C(N1CCC(c2noc(-c3cc(C4CCOC4)ncc3F)n2)CC1)C1(F)CCC1 (stereo not shown) [Compound 1275] | – | 20
